Test results: paper PMC8158245, “Novel chalcone/aryl carboximidamide hybrids as potent anti-inflammatory via inhibition of prostaglandin E2 and inducible NO synthase activities: design, synthesis, molecular docking studies and ADMET prediction” (Journal of Enzyme Inhibition and Medicinal Chemistry, 2021)
Where “and” joins values, the source holds several entries; their conditions need not be identical. Identical values can stand only once. Like-named read-outs stand apart in the source and are kept apart here.

Tests used:
[1] = MTT cytotoxicity assay on RAW 264.7 cells; format: cell-based; conditions: mouse; for IC50 at 20 h: with LPS; for IC50: without LPS
Protocol: MTT assay was used to assess the cell viability of RAW 264.7 cells cultured in RPMI-1640 complete media. […] Afterwards, 5 µl of MTT solution were added and incubated for further 4 h. Finally, 150 ul of dimethyl sulfoxide (DMSO) were added and the optical density was assessed at 570 nm using an ELISA plate reader.

[2] = system: LPS-induced NO production in RAW 264.7 cells; experiment: Griess assay for NO release from LPS-stimulated RAW 264.7 cells; format: cell-based; conditions: Mus musculus, RAW264.7; for IC50: LPS-induced RAW 264.7 cells; for inhibition at 5 µM: compounds at 5 µM, 2 h before LPS, RAW 264.7 cells, read-out: NO Inhibition rates (%) ± SD
Protocol: Equal volumes of Griess reagent and the supernatant, obtained from treated RAW264.7 cells with the compounds 2 h before LPS induction, were mixed for 10 min at room temperature in the dark. The absorbance was measured at 540 nm using ELISA plate reader and the nitrite concentration was calculated from sodium nitrite standard curve. The percentage inhibition (%) is calculated as absorbance at 540 nm of (LPS-compounds)/absorbance at 540 nm of (LPS-control) ×100[47]^,[48].

iNOS [3] = target: T1, iNOS (Mus musculus, UniProt P29477); experiment: iNOS enzymatic activity in LPS-induced RAW 264.7 cells; format: cell-based
T1 construct: endogenous in cells; host or cells: RAW 264.7 cells induced with LPS
T1 sequence (P29477 1-1144): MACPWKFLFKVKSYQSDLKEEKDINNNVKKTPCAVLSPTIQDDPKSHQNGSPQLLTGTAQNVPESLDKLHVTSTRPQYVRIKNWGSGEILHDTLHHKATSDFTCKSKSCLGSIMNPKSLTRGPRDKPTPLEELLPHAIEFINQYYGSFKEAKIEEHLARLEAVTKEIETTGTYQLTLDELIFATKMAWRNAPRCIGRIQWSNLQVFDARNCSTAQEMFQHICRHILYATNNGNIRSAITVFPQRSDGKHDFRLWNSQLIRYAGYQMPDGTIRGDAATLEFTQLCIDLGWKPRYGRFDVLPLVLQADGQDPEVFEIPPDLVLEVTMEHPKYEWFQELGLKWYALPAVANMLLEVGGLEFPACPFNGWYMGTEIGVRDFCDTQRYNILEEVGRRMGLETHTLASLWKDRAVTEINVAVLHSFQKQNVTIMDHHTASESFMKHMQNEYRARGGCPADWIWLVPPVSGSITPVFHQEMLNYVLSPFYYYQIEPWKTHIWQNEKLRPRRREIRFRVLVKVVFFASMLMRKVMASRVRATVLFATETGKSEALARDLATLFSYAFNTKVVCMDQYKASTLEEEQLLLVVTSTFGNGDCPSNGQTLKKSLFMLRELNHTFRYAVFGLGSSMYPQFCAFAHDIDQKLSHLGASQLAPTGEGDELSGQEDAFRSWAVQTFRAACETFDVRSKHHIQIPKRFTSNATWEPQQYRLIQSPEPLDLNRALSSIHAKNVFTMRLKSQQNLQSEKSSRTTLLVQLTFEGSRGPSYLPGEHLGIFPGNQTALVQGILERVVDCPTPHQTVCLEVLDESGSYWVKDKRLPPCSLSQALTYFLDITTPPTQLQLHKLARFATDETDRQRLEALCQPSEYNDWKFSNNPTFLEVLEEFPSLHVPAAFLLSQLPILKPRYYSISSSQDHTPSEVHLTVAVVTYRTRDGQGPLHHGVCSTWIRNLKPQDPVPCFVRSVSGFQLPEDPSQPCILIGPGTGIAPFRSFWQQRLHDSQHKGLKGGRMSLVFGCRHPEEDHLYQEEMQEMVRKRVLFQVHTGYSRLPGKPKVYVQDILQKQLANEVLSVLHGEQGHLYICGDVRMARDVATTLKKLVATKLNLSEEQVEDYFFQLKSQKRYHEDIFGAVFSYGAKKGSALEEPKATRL
Protocol: Then, the NOS assay reaction solution (100 µl/well) was added and incubated for an extra 2 h at 37 °C. The fluorescence with excitation wavelength at 485 nm and emission wavelength at 528 nm was measured using a fluorescent microplate reader.

[4] = system: PGE2 production in RAW 264.7 cells; experiment: PGE2 concentration by ELISA in LPS-treated RAW 264.7 cells; format: cell-based; conditions: Mus musculus, RAW264.7; LPS-induced RAW 264.7 cells
Protocol: After seeding and incubation of RAW 264.7 cells for 24 h, then the cells were treated with the compounds (4c, 4d, 6a, 6c, 6d and 6e) at different concentrations and with LPS (1 µg/ml) for another 24 h. The concentration of prostaglandin E2 (PGE2) was measured in the culture media using ELISA kit (R&D Systems, Minneapolis, MN)[50].

bovine COX-1 = target: T2, bovine COX-1 (Ovis aries, UniProt P05979); experiment: In vitro COX-1 inhibition assay (Cayman kit); format: biochemical
T2 construct: purchased Cayman Chemical 560101
T2 sequence (P05979 25-600): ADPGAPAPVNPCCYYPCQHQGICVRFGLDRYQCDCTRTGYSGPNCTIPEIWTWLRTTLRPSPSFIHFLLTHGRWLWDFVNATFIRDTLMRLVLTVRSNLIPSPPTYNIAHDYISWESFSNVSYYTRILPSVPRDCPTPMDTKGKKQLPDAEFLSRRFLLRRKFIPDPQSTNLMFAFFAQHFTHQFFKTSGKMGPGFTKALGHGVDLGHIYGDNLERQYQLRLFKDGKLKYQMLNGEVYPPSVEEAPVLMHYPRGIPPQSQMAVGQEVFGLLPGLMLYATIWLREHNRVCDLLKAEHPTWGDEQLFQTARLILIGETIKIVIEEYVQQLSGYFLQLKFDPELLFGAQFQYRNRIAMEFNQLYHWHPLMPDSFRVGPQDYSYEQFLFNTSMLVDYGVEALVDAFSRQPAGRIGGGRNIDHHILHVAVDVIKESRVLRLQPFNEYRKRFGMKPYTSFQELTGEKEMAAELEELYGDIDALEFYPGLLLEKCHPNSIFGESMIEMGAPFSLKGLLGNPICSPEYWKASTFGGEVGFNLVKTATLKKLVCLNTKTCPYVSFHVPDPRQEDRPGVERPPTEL

COX-2 [5] = experiment: In vitro COX-2 inhibition assay (Cayman kit); format: biochemical, bovine; conditions: selectivity index from COX 1 and COX 2 IC50
[6] = system: carrageenan-induced paw edoema; experiment: Carrageenan-induced rat paw edoema; format: in vivo, Wistar albino rats; conditions: for % of edoema inhibition (% mean ± SEM), 1 h / % of edoema inhibition (% mean ± SEM), 2 h / % of edoema inhibition (% mean ± SEM), 3 h / % of edoema inhibition (% mean ± SEM), 4 h: rat, 50 mg/kg oral; for % of edoema inhibition (% mean ± SEM), 1 h: 1 h after carrageenan; for % of edoema inhibition (% mean ± SEM), 2 h: 2 h after carrageenan; for % of edoema inhibition (% mean ± SEM), 3 h: 3 h after carrageenan; for % of edoema inhibition (% mean ± SEM), 4 h: 4 h after carrageenan
Protocol: The anti-inflammatory activity of the inspiring active compounds in vitro (4c, 4d, 6a, 6c, 6d and 6e) were further estimated in vivo using the carrageenan-induced paw edoema test. […] The paw thickness was assessed using Vernier calliper after carrageenan injection for 1,2, 3 and 4 h. Wistar albino rats (males weighing 120–140 g, six rats per group) were grouped as follows: Group 1 (Control) rats were received the vehicle. […] The percentage inhibition of edoema thickness was calculated at each time interval in comparison to the control group.

COX-2 [7] = system: COX-2; set-up: method as in PMID 30878890; conditions: cited from earlier work; for IC50: Figure 1
15-LOX = system: 15-LOX; set-up: method as in PMID 30878890; conditions: Figure 1; cited from earlier work
[8] = system: LPS-induced NO production; conditions: cited from earlier work
iNOS [9] = target: T1, iNOS; conditions: cited from earlier work
PGE2 = conditions: cited from earlier work
[10] = four hours after carrageenan injection

SMILES	IC50 at 20 h [1] [µM]	IC50 [1] [µM]	IC50 [2] [µM]	inhibition at 5 µM [2] [%]	IC50 (iNOS [3]) [µM]	IC50 [4] [µM]	IC50 (bovine COX-1) [µM]	SI (COX-2 [5])	% of edoema inhibition (% mean ± SEM), 1 h [6] [%]	% of edoema inhibition (% mean ± SEM), 2 h [6] [%]	% of edoema inhibition (% mean ± SEM), 3 h ([6]; 50 mg/kg)	other results
COc1ccc(C(=O)/C=C/c2ccc(OCC(=O)O/N=C(\N)c3ccccc3)cc2)cc1 [Compound 6a, N’-(2-{4-[(1E)-3-(4-Methoxyphenyl)-3-oxoprop-1-en-1-yl]phenoxy}acetoxy) benzenecarboximidamide]	> 80	> 80	13.6	55.5 ± 2.4	6.32	0.0481	20.9 ± 1.09	19	14.36 ± 3.11	24.33 ± 2.26	45.83% and 45.83 ± 2.74%	% of edoema inhibition (% mean ± SEM), 4 h [6]: 55.74 ± 2.59%; melting point: 172 to 173 °C
COc1ccc(C(=O)/C=C/c2ccc(OCC(=O)ON=C(N)c3ccc(OC)cc3)cc2)cc1 [Compound 6c, N’-(2-{4-[(1E)-3-(4-Methoxyphenyl)-3-oxoprop-1-en-1-yl]phenoxy}acetoxy)-4-methoxybenzenecarboximidamide]	> 80	> 80	5.92	67.1 ± 2.4	2.45	0.0275	64.4 ± 3.35	7.79	11.42 ± 1.75	28.44 ± 2.75	54.36% and 54.36 ± 2.34%	% of edoema inhibition (% mean ± SEM), 4 h ([6]; 50 mg/kg): 62.21% and 62.21 ± 3.46%
COc1ccc(C(=O)/C=C/c2ccc(OCC(=O)O/N=C(\N)c3ccc(OC)c(OC)c3)cc2)cc1 [Compound 6d, N’-(2-{4-[(1E)-3-(4-Methoxyphenyl)-3-oxoprop-2-en-1-yl]phenoxy}acetoxy) -3,4-dimethoxybenzenecarboximidamide]	> 80	> 80	4.36	78.2 ± 3.4	1.91	0.0212	17.8 ± 0.93	0.17	13.25 ± 2.04	38.43 ± 3.62	65.31% and 65.31 ± 2.64%	anti-inflammatory activity relative to celecoxib [6, 10]: ~7 fold; anti-inflammatory activity relative to indomethacin [6, 10]: ~1.5 fold; % of edoema inhibition (% mean ± SEM), 4 h ([6]; 50 mg/kg): 78.51% and 78.53% and 78.53 ± 3.28%
COc1ccc(C(=O)/C=C/c2ccc(OCC(=O)O/N=C(\N)c3ccc([N+](=O)[O-])cc3)cc2)cc1 [Compound 6e, N’-(2-{4-[(1E)-3-(4-Methoxyphenyl)-3-oxoprop-2-en-1-yl]phenoxy}acetoxy)-4-nitrobenzenecarboximidamide]	> 80	> 80	15.8	57.9 ± 1.3	7.15	0.0451	12.7 ± 0.66	7.43	10.23 ± 3.17	19.34 ± 2.45	–	% of edoema inhibition (% mean ± SEM), 4 h [6]: 33.21 ± 3.15%; melting point: 193 to 194 °C
COc1ccc2cc(C(C)C(=O)O/N=C(\N)c3ccc(Cl)cc3)ccc2c1 (centres unmarked) [IV]	–	–	–	–	–	–	–	–	–	–	–	IC50 (COX-2 [7]): 7.15 nM; IC50 (15-LOX): 1.77 nM
COc1ccc2c(c1)c(CC(=O)O/N=C(\N)c1ccc(OC)c(OC)c1)c(C)n2C(=O)c1ccc(Cl)cc1 [VII]	–	–	–	–	–	–	–	–	–	–	–	IC50 ([8]; Figure 1, read-out: NO IC50): 6.53 µM; IC50 (iNOS [9]; Figure 1, read-out: iNOS IC50): 3.26 µM; IC50 (PGE2): 0.0345 µM
COc1ccc2c(c1)c(CC(=O)O/N=C(\N)c1ccccc1)c(C)n2C(=O)c1ccc(Cl)cc1 [VI]	–	–	–	–	–	–	–	–	–	–	–	IC50 ([8]; as printed in the introduction, read-out: LPS-induced NO production IC50): 10.7 µM; IC50 (iNOS [9]; as printed in the introduction, read-out: iNOS activity IC50): 2.31 µM; IC50 (PGE2): 0.029 µM
COc1ccc2cc(C(C)C(=O)O/N=C(\N)c3ccc(OC)c(OC)c3)ccc2c1 (centres unmarked) [V]	–	–	–	–	–	–	–	–	–	–	–	IC50 (COX-2 [7]): 6.4 nM; COX-2 inhibitory potency relative to celecoxib (COX-2 [7]): approximately 6.6 folds; IC50 (15-LOX): 2.07 nM
